Experimental data: patent US9040523B2, “Antifungal 5,6-dihydro-4H-pyrrolo[1,2-α][1,4]-benzodiazepines and 6H-pyrrolo[1,2-α][1,4]benzodiazepines substituted with benzene derivatives” (JANSSEN PHARMACEUTICA NV, priority 2010, dated 2015)

Key:
[1] = Plasma protein binding assay (rapid equilibrium device); type: in vitro ADME; settings: guinea pig plasma, equilibrium dialysis 4 h at 37 °C, read-out: fraction bound (converted)
Procedure: Plasma was freshly prepared by centrifugation of guinea pig blood for 10 min at 1900 g in K3-EDTA (Ethylenediaminetetraacetic acid) coated tubes. The plasma protein binding of compounds was assessed at 5 μM concentrations as described by Van Liemp et al. 2010 (Van Liemp S, Morrison D, Sysmans L, Nelis P & Mortishire-Smith R (2010). Development and Validation of a Higher-Throughput Equilibrium Dialysis Assay for Plasma Protein Binding. Journal of the Association for Laboratory Automation, 2010, in press) using a rapid equilibrium device (RED). Briefly, guinea pig plasma was mixed with 5 μM test compound and then applied to the RED. Equilibrium was achieved after 4 h incubation at 37° C. Compound concentrations in the buffer and plasma compartment of the device were measured by LC-MS/MS.

CYP1A2 = target: T1, CYP1A2 (Homo sapiens, UniProt P05177); experiment: Cytochrome P450 inhibition, Protocol A, cDNA expressed proteins, fluorogenic substrate; type: in vitro ADME; settings: % inhibition at 10 μM; substrate CEC; cDNA expressed protein
T1 sequence (P05177 1-516): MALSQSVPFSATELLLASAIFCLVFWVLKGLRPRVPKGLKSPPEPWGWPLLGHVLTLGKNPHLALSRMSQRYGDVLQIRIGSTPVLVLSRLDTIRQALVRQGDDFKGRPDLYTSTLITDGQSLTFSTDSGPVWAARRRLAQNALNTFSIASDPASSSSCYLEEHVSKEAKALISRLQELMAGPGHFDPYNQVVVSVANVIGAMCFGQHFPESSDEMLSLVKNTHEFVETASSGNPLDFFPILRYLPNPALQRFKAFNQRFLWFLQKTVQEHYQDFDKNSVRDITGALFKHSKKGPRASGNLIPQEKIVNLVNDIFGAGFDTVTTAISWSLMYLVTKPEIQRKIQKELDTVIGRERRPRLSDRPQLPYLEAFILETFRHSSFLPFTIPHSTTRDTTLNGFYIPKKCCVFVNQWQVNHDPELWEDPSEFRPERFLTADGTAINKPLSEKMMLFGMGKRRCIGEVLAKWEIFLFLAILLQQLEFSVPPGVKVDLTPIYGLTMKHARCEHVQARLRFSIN
Method in brief: (§1)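 cDNA-expressed enzymes with fluorogenic substrates (three separate ones for CYP3A4) in sodium/potassium buffer pH 7.4 plus NADPH-generating system. Compounds at 1 nM to 10 μM final, prewarmed 5 min at 37° C, reaction started with NADP+, stopped, then fluorescence measured.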

CYP2C9 = CYP2C9 (Homo sapiens, UniProt P11712); experiment: as above; type: in vitro ADME; settings: % inhibition at 10 μM; substrate MFC; cDNA expressed protein
CYP2C9, sequence (P11712 whole entry): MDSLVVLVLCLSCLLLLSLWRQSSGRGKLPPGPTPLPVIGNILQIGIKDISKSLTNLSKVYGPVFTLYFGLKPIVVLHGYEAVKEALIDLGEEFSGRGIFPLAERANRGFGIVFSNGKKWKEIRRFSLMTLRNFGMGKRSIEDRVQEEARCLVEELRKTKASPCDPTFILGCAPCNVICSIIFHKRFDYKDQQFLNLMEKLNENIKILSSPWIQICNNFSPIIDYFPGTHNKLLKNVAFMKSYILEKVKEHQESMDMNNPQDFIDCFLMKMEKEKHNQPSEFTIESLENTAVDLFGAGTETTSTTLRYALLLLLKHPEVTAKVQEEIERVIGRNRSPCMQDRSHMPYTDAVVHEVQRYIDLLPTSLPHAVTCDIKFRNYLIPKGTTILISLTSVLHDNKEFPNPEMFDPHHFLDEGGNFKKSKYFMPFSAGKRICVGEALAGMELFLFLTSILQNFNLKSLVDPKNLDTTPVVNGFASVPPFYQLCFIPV
Method in brief: as §1

CYP2D6 = CYP2D6 (Homo sapiens, UniProt P10635); experiment: as above; type: in vitro ADME; settings: % inhibition at 10 μM; substrate AMMC; cDNA expressed protein
CYP2D6, sequence (P10635 whole entry): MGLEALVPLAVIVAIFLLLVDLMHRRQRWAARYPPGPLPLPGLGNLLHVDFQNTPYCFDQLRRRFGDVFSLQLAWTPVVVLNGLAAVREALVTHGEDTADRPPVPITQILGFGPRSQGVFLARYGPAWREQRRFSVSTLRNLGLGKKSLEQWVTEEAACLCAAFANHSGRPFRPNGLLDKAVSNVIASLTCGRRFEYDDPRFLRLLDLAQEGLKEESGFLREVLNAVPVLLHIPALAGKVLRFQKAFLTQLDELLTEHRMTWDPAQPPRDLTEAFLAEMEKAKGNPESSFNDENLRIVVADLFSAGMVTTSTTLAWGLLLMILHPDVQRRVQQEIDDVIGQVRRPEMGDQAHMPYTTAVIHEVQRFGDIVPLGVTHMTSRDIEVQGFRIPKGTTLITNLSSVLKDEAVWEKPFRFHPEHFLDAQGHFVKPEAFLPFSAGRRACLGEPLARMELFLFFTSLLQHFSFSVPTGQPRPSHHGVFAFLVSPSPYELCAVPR
Method in brief: as §1

[2] = Liver metabolic stability assay, mLM; type: in vitro ADME; settings: mouse liver microsomes, 1 mg protein/ml, 5 μM test compound, 15 min, 37 °C
Procedure: Liver preparations (microsomal fractions) were obtained from BD Gentest (San Jose, Calif., US). Metabolic stability was assessed using the following assay conditions. […] The mixture was pre-incubated at 37° C. for 5 min and the enzymatic reaction was started by addition of 5 μM test compound. After 0 (control) and 15 minutes (min), the reactions were terminated by addition of […] (500 μl). The precipitated material was removed by centrifugation at 1200 g for 10 min. The supernatant was analysed by LC-MS/MS on a ThermoFinnigan LCQ Deca XP ion-trap mass spectrometer equipped with an atmospheric pressure chemical ionisation source. Calculation of %-compound remaining was as described by Kantharaj et al. 2003 ((Kantharaj E., Tuytelaars A, Proost P E A, Ongel Z, van […] (2003). Simultaneous measurement of drug metabolic stability and identification of metabolites using ion-trap mass spectrometry.

Row | SMILES | fraction unbound at 4 h, 5 μM [1] | hCYP1A2_CEC_Pct_Inh (CYP1A2) | hCYP2C9_MFC_Pct_Inh (CYP2C9) | hCYP2D6_AMMC_Pct_Inh (CYP2D6) | melting point | %-compound metabolised Met_mLM [2]
1 | CC(=O)c1ccc(C2=NCc3cccc(Cl)c3-n3cccc32)cc1 [Compound 15, 1-[4-(10-chloro-6H-pyrrolo[1,2-a][1,4]benzodiazepin-4-yl)phenyl]-ethanone] | 0.0152 | 38% | 60% | 63% | 171.4 to 171.8 °C | –
2 | CC(=O)c1cccc(C2=NCc3c(Cl)cccc3-n3cccc32)c1 [Compound 16, 1-[3-(7-chloro-6H-pyrrolo[1,2-a][1,4]benzodiazepin-4-yl)phenyl]-ethanone] | – | 55% | 84% | 55% | – | 97%
3 | CC(=O)c1cc(C2=NCc3c(Cl)cccc3-n3cccc32)ccc1F [Compound 19, 1-[5-(7-chloro-6H-pyrrolo[1,2-a][1,4]benzodiazepin-4-yl)-2-fluorophenyl]-ethanone] | – | 44% | 60% | 33% | 146.2 to 147.7 °C | –
4 | CC(=O)c1ccc(C2=NCc3c(F)cccc3-n3cccc32)cc1 [Compound 20, 1-[4-(7-fluoro-6H-pyrrolo[1,2-a][1,4]benzodiazepin-4-yl)phenyl]-ethanone] | – | 18% | 43% | 20% | 215.2 to 216 °C | –
5 | CC(=O)c1ccc(C2=NCc3c(Cl)cc(Cl)cc3-n3cccc32)cc1 [Compound 22, 1-[4-(7,9-dichloro-6H-pyrrolo[1,2-a][1,4]benzodiazepin-4-yl)phenyl]-ethanone] | – | 20% | 85% | 53% | 250.2 to 254.2 °C | 37%
6 | CC(=O)c1ccc(C2=NCc3c(F)cc(F)cc3-n3cccc32)cc1 [Compound 24, 1-[4-(7,9-difluoro-6H-pyrrolo[1,2-a][1,4]benzodiazepin-4-yl)phenyl]-ethanone] | – | 18% | 54% | 3% | 226.9 to 230 °C | –
